Earlier results on one compound are cited in patent US11753409B2, “Crystalline salts of a B-RAF kinase inhibitor” (Xynomic Pharmaceuticals, Inc., priority 2017, dated 2023).

The conditions of series [1]: treated mice; cited from earlier work.
The subject of series [2] is human B-RAF-mutant melanoma cells. As to conditions: cited from earlier work.
Series [3] deals with wild-type cells. The settings on record: at 1,000 nmol/L; cited from earlier work.
The test system of series [4] is B-RAF-mutant melanomas and colorectal carcinomas. The settings on record: cited from earlier work.
The conditions of series [5]: rats, up to 60 mg/kg daily for 2 weeks; cited from earlier work.
The subject of series [6] is A375 melanoma. As to conditions: particularly in combination with trametinib; cited from earlier work.

Regarding `CCCS(=O)(=O)Nc1ccc(F)c(-n2cc(-c3cncnc3)c3nc(N(C)C4CCN(CC)CC4)ccc32)c1F` [BI 882370, N-(3-(5-((1-ethylpiperidin-4-yl)(methyl)amino)-3-(pyrimidin-5-yl)-1H-pyrrolo[3,2-b]pyridin-1-yl)-2,4-difluorophenyl)propane-1-sulfonamide], in series [1], the “Body weight loss or clinical signs of intolerability” value is “did not show any body weight loss or clinical signs of intolerability” and the “Pathologic changes in several major organs, including skin” value is “no pathologic changes were observed”. Further, the “Potency, inhibition of proliferation” value in series [2] is 1 to 10 nM. The “Potency relative to vemurafenib” value in series [2] (higher potency than vemurafenib) is given as 100 times. In addition, the “Effect on wild-type cells” value in series [3] was “not affected”. In addition, in series [4] (25 mg/kg twice daily, oral), the “Efficacy compared with vemurafenib, dabrafenib, or trametinib” value was “superior efficacy”. For the same compound, the “Efficacy in mouse models” value in series [4] (solution administered orally) was “efficacious”. The “Toxicity (clinical chemistry, hematology, pathology, toxicogenomics)” value in series [5] is given as “lacked toxicity”. Moreover, the “Activity in vemurafenib-resistant model” value in series [6] is listed as “active”.
